According to paper PMC7655540, “Accumulation of Target Gene Mutations Confers Multiple Resistance to ALS, ACCase, and EPSPS Inhibitors in Lolium Species in Chile” (Frontiers in Plant Science, 2020):
Where two headings read alike, the source gives them in different places.

What was measured:
EPSPS = test: phosphate release, EnzCheck phosphate assay, […] nm; format: biochemical, Lolium perenne; conditions: S population; partially purified leaf extract; pH 7.0; read-out: I50
ACCase [1] = molecular target: T1, ACCase (Lolium perenne, UniProt Z9B5O7SYH2); test: ATP-dependent incorporation of […]-bicarbonate into malonyl-CoA; format: biochemical; conditions: S population; partially purified leaf extract; 5 mM acetyl-CoA, pH 8.3, 34°C; diclofop-acid per methods; read-out: I50
T1 construct: native enzyme, young leaf extract, ammonium sulfate fraction, desalted; isoforms not separated

ACCase [2] = molecular target: T1, ACCase; test: as above; format: biochemical; conditions: R population extract, heterogeneous alleles; 5 mM acetyl-CoA, pH 8.3, 34°C; stated gain; read-out: I50
ACCase [3] = molecular target: T2, ACCase (Lolium multiflorum, UniProt A0AAD8WR50); test: as above; format: biochemical; conditions: S population; partially purified leaf extract; 5 mM acetyl-CoA, pH 8.3, 34°C; diclofop-acid per methods; read-out: I50
T2 construct: gene QYE76_038327; native enzyme, young leaf extract, ammonium sulfate fraction, desalted; isoforms not separated
T2 sequence (A0AAD8WR50 1-2320): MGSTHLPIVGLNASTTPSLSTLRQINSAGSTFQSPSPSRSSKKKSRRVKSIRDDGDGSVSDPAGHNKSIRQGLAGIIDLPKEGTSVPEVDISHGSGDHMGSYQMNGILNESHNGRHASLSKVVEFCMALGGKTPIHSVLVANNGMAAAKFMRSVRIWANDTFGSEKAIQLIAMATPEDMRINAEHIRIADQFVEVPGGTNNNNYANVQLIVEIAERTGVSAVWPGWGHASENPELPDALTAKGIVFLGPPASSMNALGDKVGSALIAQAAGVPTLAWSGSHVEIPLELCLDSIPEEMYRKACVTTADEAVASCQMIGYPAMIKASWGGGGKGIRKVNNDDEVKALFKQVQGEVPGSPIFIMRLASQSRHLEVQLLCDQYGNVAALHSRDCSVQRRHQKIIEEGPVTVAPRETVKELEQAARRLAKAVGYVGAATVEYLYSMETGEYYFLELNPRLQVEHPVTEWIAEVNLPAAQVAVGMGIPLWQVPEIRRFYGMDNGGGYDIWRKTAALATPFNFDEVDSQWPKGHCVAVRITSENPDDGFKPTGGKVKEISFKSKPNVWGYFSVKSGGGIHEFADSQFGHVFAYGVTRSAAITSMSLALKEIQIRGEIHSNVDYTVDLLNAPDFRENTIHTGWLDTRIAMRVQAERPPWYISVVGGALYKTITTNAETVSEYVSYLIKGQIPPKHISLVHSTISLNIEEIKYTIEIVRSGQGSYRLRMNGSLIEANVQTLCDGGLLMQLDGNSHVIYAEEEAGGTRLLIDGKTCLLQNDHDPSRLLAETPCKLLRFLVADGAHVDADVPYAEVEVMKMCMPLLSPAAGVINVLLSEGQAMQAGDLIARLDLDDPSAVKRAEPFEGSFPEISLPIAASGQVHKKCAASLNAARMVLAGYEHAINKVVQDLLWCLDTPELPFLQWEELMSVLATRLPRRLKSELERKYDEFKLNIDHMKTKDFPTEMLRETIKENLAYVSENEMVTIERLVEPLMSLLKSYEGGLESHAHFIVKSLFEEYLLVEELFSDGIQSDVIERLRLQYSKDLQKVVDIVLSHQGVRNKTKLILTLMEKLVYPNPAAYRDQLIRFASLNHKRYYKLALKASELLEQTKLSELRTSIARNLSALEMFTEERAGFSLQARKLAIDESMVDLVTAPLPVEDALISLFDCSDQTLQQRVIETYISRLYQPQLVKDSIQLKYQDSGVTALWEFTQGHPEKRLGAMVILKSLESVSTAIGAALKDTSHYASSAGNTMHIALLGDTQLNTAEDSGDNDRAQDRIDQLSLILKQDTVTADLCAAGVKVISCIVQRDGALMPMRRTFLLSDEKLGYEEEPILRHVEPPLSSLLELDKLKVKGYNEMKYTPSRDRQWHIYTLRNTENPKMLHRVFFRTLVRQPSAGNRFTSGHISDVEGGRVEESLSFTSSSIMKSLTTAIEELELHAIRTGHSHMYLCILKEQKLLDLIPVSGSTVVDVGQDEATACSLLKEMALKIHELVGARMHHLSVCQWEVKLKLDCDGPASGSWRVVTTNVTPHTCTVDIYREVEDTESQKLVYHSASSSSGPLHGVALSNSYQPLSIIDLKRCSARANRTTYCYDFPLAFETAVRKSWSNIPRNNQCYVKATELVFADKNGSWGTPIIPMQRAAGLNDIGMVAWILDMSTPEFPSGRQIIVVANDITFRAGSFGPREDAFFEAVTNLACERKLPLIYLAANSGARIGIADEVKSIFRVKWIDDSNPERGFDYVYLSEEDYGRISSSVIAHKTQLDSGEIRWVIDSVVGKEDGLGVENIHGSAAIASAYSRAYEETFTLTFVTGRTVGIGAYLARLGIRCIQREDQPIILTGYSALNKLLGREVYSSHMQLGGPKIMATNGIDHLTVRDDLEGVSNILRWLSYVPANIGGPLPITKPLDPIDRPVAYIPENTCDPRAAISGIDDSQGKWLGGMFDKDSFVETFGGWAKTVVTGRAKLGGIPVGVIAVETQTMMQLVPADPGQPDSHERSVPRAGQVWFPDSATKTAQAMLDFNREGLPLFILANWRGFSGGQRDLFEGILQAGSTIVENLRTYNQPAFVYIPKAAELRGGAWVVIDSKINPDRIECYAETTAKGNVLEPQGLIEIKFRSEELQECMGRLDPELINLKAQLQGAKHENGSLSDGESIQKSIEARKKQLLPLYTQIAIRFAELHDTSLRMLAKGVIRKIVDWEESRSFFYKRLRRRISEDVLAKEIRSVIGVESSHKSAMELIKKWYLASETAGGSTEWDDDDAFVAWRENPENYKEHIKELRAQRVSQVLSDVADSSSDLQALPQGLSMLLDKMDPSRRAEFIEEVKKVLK

## O=C(O)CNCP(=O)(O)O [glyphosate]
EPSPS
  IC50: 7.8 µM

## CC(Oc1ccc(Oc2ccc(Cl)cc2Cl)cc1)C(=O)O (stereo not shown) [diclofop-acid]
ACCase [1]
  IC50: 6.2 µM
ACCase [2]
  IC50: 68.6 µM
ACCase [3]
  IC50: 4.6 µM
